# Assays:
# Type in all cases: in vivo, nude mouse
# [1] = tested on: human non-small cell lung cancer cell line (A549); assay: Anti-tumor effect on subcutaneous transplant model of A549; details: 50 or 200 mg/kg orally twice a day for 7 days
# Experimental: (§1) Human non-small-cell lung cancer cell line PC9 (obtained from Immuno-Biological laboratories Co., Ltd.), human non-small-cell lung cancer cell line A549 (obtained from Dainippon Pharmaceutical), human colon cancer cell line WiDr (obtained from Dainippon Pharmaceutical) and human colon cancer cell line HCT116 (obtained from ATCC) were cultured in RPMI1640 (containing 10% FBS) in a 5% carbon dioxide incubator at 37° C. to about 80% confluence, and the cells were collected with trypsin-EDTA. Using a phosphate buffer for PC9, WiDr and HCT116 and a 50% matrigel-containing phosphate buffer for A549, 5×10^7 cells/mL suspensions were prepared, respectively. Then, 0.1 mL each of the resulting cell suspensions was subcutaneously transplanted to the side of a nude mouse.
# (§2) For PC9, 8 days after the transplantation, E7820 was orally administered for 50 mg/kg, 100 mg/kg or 200 mg/kg twice a day for 14 days. For A549, 24 days after the transplantation, E7820 was orally administered for 50 mg/kg or 200 mg/kg twice a day for 7 days. For WiDr, 11 days after the transplantation, E7820 was orally administered for 50 mg/kg, 100 mg/kg or 200 mg/kg twice a day for 14 days. […]
# (§3) The major and minor axes of tumors were measured with Digimatic caliper (Mitsutoyo), and tumor volumes and relative tumor volumes were calculated according to the following formulae. […]
# [2] = tested on: human colon cancer cell line (WiDr); assay: Anti-tumor effect on subcutaneous transplant model of WiDr; details: WiDr subcutaneous transplant, 50, 100 or 200 mg/kg orally twice a day for 14 days
# Experimental: as §1, §2, §3
# EGFR1 [3] = assay: EGFR1 expression and phosphorylation level in PC9 subcutaneous transplant model (western blotting); details: for Phosphorylation level of EGFR1 (% of control) / EGFR1 expression level (% of control): PC9 tumor in nude mouse; for Phosphorylation level of EGFR1 (% of control): anti-EGFR pY1068 western blotting
# Experimental: PC9 was cultured in RPMI1640 (containing 10% FBS) in a 5% carbon dioxide incubator to about 80% confluence. The cells were collected with trypsin-EDTA according to a routine procedure and 5×10^7 cells/mL suspension was prepared with a phosphate buffer. Then, 0.1 mL each of the resulting suspension was subcutaneously transplanted to the side of a nude mouse. Eight days after the transplantation, E7820 was orally administered for 50 mg/kg or 200 mg/kg twice a day for a week. One week after the start of sadministration, tumors were removed to prepare tumor cell lysates with various protease inhibitors and a cell lysis solution containing 10% glycerol and 1% Triton X-100 in ice. For each tumor cell lysate, an equal amount of protein was fractionated by SDS-PAGE and transferred onto a nitrocellulose membrane (Hybond ECL, Amersham Biosciences). Then, western blotting was performed by using an anti-EGFR1 antibody (Santa Cruz Biotechnology) or an anti-EGFR pY1068 antibody (anti-phosphorylated-EGFR1 antibody) (Cell Signaling) and horse radish peroxidase-labeled anti-mouse IgG antibody (secondary antibody) (Cell Signaling) according to a routine procedure.
# (§4) Detection and quantification of each band were carried out as follows. First, each band was forced to chemically develop a color with Chemiluminescent Substrate (PIERCE), which was then captured as a digital image with Image Master VDS-CL (Amersham Pharmacia Biotech, Tokyo). The digital images were saved as TIF files and each band was numerically converted with Image Master total Lab (version 1.00, Amersham Pharmacia Biotech, Tokyo).
# EGFR1 [4] = assay: EGFR1 expression level in HCT116 subcutaneous transplant model (western blotting); details: for EGFR1 expression level (% of control) HCT116: HCT116 tumor in nude mouse
# Experimental: (§5) HCT116 or WiDr was cultured in RPMI1640 (containing 10% FBS) in a 5% carbon dioxide incubator to about 80% confluence. The cells were collected with trypsin-EDTA according to a routine procedure and 5×10^7 cells/mL suspensions were prepared with a phosphate buffer. Then, 0.1 mL each of the resulting suspension was subcutaneously transplanted to the side of a nude mouse.
# (§6) For HCT116, 23 days after the transplantation, E7820 was orally administered for 12.5 mg/kg, 50 mg/kg or 200 mg/kg twice a day for 3 days. On the other hand, for WiDr, 18 days after the transplantation, E7820 was orally administered for 50 mg/kg or 200 mg/kg twice a day for 7 days. Four days after the start of administration for HCT116 and 8 days after the start of administration for WiDr, tumors were removed to prepare tumor cell lysates with various protease inhibitors and a cell lysis solution containing 10% glycerol and 1% Triton X-100 in ice. For each tumor cell lysate, an equal amount of protein was fractionated by SDS-PAGE and transferred onto a nitrocellulose membrane (Hybond ECL, Amersham Biosciences). Then, western blotting was performed by using an anti-EGFR1 antibody (Santa Cruz Biotechnology) and horse radish peroxidase-labeled anti-mouse IgG antibody (secondary antibody) (Cell Signaling) according to a routine procedure.
# as §4, with “and” for “and each band was”
# EGFR1 [5] = assay: EGFR1 expression level in WiDr subcutaneous transplant model (western blotting); details: for EGFR1 expression level (% of control) WiDr: WiDr tumor in nude mouse
# Experimental: as §5, §6
# as §4, with “and” for “and each band was”
# [6] = PC9 transplanted tumors, dose-dependent, western blotting
compound,measurement,setting,value
"Cc1ccc(NS(=O)(=O)c2cccc(C#N)c2)c2[nH]cc(C#N)c12 [E7820, N-(3-cyano-4-methyl-1H-indole-7-yl)-3-cyanobenzenesulfonamide]",Anti-tumor effect (relative tumor volume),[1],showed anti-tumor effects
same,Anti-tumor effect (relative tumor volume),[2],showed anti-tumor effects
same,Effect on EGFR1 expression level (in words),EGFR1 [3]; [6],decreased the EGFR1 expression level
same,Effect on phosphorylation of EGFR1 (in words),EGFR1 [3]; [6],inhibited phosphorylation of EGFR1
same,Phosphorylation level of EGFR1 (% of control),EGFR1 [3]; 50 mg/kg orally twice a day for a week,59 % of control
same,EGFR1 expression level (% of control),"EGFR1 [3]; 50 mg/kg orally twice a day for a week, western blotting",63 % of control
same,Phosphorylation level of EGFR1 (% of control),EGFR1 [3]; 200 mg/kg orally twice a day for a week,51 % of control
same,EGFR1 expression level (% of control),"EGFR1 [3]; 200 mg/kg orally twice a day for a week, western blotting",40 % of control
same,Effect on EGFR1 expression level (in words),"EGFR1 [4]; HCT116 transplanted tumors, dose-dependent",decreased the EGFR1 expression level
same,EGFR1 expression level (% of control) HCT116,EGFR1 [4]; 12.5 mg/kg orally twice a day for 3 days,37 % of control
same,EGFR1 expression level (% of control) HCT116,EGFR1 [4]; 50 mg/kg orally twice a day for 3 days,47 % of control
same,EGFR1 expression level (% of control) HCT116,EGFR1 [4]; 200 mg/kg orally twice a day for 3 days,42 % of control
same,Effect on EGFR1 expression level (in words),EGFR1 [5]; WiDr transplanted tumors,did not change the EGFR1 expression level
same,EGFR1 expression level (% of control) WiDr,EGFR1 [5]; 50 mg/kg orally twice a day for 7 days,117 % of control
same,EGFR1 expression level (% of control) WiDr,EGFR1 [5]; 200 mg/kg orally twice a day for 7 days,121 % of control
